Experimental data reported in patent US20080182877A1, “Rimonabant forms and methods of making the same” (priority 2007, published 2008).
Where a name gives a salt, the structure may show the parent alone.

Columns and labels:
Format in all cases: physicochemical
[1] = Storage stability of solid forms at room temperature
Protocol: In detail, rimonabant base may be isolated in a new solid state crystalline hydrate form, designated as the Form III. Form III is characterized by the XRPD spectrum having characteristic peaks at angles of around 9.29°, 10.49°, 13.52°, 15.25°, 17.78° using a 2-theta scale. […] The hydrated Form III is stable during storage at room temperature.
In general, a mixture of the hydrated Form III and the methanol solvate Form IV may be obtained after a crystallization of rimonabant base from a methanol solvent containing water. Mixtures of the hydrated Form III and the methanol solvate Form IV may also be obtained by crystallizing rimonabant base and rimonabant hydrochloride from methanol/water mixtures. A longer crystallization time, a slower cooling, and a lower solute concentration each generally promote the crystallization of Form III over Form IV. […] The methanolate Form IV is thus a thermodynamically unstable form. A mixture of Forms III and Form IV is also useful for making particulated amorphous rimonabant base.
Rimonabant base may also be isolated in a propanol solvate form, designated as the Form VI. Form VI is characterized by the following XRPD having characteristic peaks at angles of around 6.73°, 8.36°, 9.92°, 11.98°, 13.45°, 14.34°, 18.14°, 21.43°, 21.88°, 24.13°, 31.03° and 32.28° using a 2-theta scale. […] Instead, the known Form I of the crystalline anhydrous rimonabant is provided after a crystallization from 2-propanol. Form VI may be obtained by crystallizing rimonabant base from a 1-propanol solvent. For example, the crystallization may be induced by a slow evaporation of the 1-propanol solvent.

[2] = Stability of the salt towards solvents (crystallization or stirring of a suspension)
Source text: A known rimonabant solvate form, a rimonabant ethanol solvate, is disclosed in U.S. Pat. No. 5,624,941 (Example 212). According to U.S. Pat. No. 5,624,941, this ethanol solvate may be made by crystallizing rimonabant from ethanol. It has now been discovered that the same rimonabant ethanol solvate may be obtained by a novel solvent mediated transformation, such as by suspending and stirring the anhydrous rimonabant base in a liquid comprising ethanol. For example, the liquid may be an ethanol/water mixture, e.g. having a 3:1 (V/V) ratio. Also the crystallization of rimonabant hydrochloride from an ethanol/water mixture may provide for the known ethanolate of rimonabant base, which is another process not disclosed in the prior art and indicates the instability of rimonabant hydrochloride towards solvents comprising ethanol. As described more fully below, this ethanol solvate can be used to form amorphous rimonabant.
In this regard, the rimonabant salt can precipitate as the base, either by addition of a neutralizing base or spontaneously, and/or can precipitate as the salt and convert to the base by a solvent mediated transformation. Accordingly, stirring a suspension of rimonabant hydrochloride in a solvent comprising water (e.g. water/methanol=30:1 V/V) at ambient temperature provides for solvent-mediated polymorphic transformation yielding the Form III of rimonabant base. […]

[3] = Thermal desolvation of hydrates/solvates by heating/drying; conditions: among Form III, IV, V and VI; temperature higher than 80° C. preferable
Source text: The conversion of any of the above hydrates and/or solvates, as well as mixtures thereof, to the particulated amorphous rimonabant base may be performed by a heating (drying) thereof at an enhanced temperature (e.g., higher than room temperature), preferably at diminished pressure (e.g., lower than atmospheric pressure). The transformation into the particulated amorphous rimonabant base may be accomplished by the fact that the crystalline lattice of any of the solvates and/or hydrates is thermally unstable and may collapse at an enhanced temperature without any further recrystallization into the most thermodynamically stable form of rimonabant, the Form I. Accordingly the Form I cannot apparently be converted into the amorphous form by such a simple transformation.
The fastest loss of the bound solvent in combination with amorphization occurs for the ethanol solvate, where the heating/drying of the product takes place at 60° C. or more, generally 60-80° C. Accordingly, the ethanol solvate can be used to obtain powderized amorphous rimonabant base. For other hydrates/solvates, e.g., for the methanolate Form IV, propanolate Form VI, hydrate Form III or hydrate Form V, a temperature higher than 80° C. is preferable to facilitate the conversion into the particulate amorphous rimonabant base. […]

Solubility in water = conditions: compared with the known Form I
Source text: In general, only the hydrated Form III rimonabant is obtainable by a process employing water as the solvent. The other known solvent-free forms I and II are made by a process employing solely an organic solvent. The Form III is thus an advantageous form from technological and ecological reasons.

With `Cc1c(C(=O)NN2CCCCC2)nn(-c2ccc(Cl)cc2Cl)c1-c1ccc(Cl)cc1` [Form IV, Rimonabant] the conversion during storage ([1]; in the presence of air humidity) was “may be converted into Form III”.
In the case of `Cc1c(C(=O)NN2CCCCC2)nn(-c2ccc(Cl)cc2Cl)c1-c1ccc(Cl)cc1` [rimonabant hydrochloride], the “stability towards solvents comprising ethanol” value ([2]; crystallization from an ethanol/water mixture gives the ethanolate of the base) was “instability” and the “stability towards solvents comprising water” value ([2]; e.g. water/methanol 30:1 V/V, ambient temperature, yields Form III of the base) was “not stable”.
With `Cc1c(C(=O)NN2CCCCC2)nn(-c2ccc(Cl)cc2Cl)c1-c1ccc(Cl)cc1` [Form VI, Rimonabant] the stability during storage [1] was “sufficiently stable” and the “relative stability to heating/drying (desolvation)” value [3] was “most stable”.
In the case of `Cc1c(C(=O)NN2CCCCC2)nn(-c2ccc(Cl)cc2Cl)c1-c1ccc(Cl)cc1` [Form III, Rimonabant], the stability during storage [1] was “stable” and the solubility in water (Solubility in water) was “same solubility in water as the known Form I”.
